Each structure is given as a SMILES string.

This is an account of results in the RepoRT retention time repository (doi:10.1016/j.scitotenv.2015.09.145).

This data set is described as follows: Waters Atlantis T3, 100 × 2.1 mm, 3 µm, 0.1 mL/min, estimated dead time 2.2 min; A: water + 0.01% formic acid; B: methanol; gradient (min/%B) 0/2 3/2 20/100 29/100. The following applies: stereoisomer not certain.

In the case of `CNC(C)C(O)c1ccccc1` (stereo not given), the LC retention time is 12.4 min.
The value for `Cc1cc2c(s1)Nc1ccccc1N=C2N1CCN(C)CC1` was 20.4 min; that for `CC(N)Cc1ccccc1` (stereo not given) was 13.3 min.
Take `CCN(CC)CC(=O)Nc1c(C)cccc1C`: the LC retention time is 14.2 min.
The value for `CN1C2CCC1C(C(=O)O)C(OC(=O)c1ccccc1)C2` (stereo not given) was 15.7 min.
The value for `Cc1ncc([N+](=O)[O-])n1CCO` was 13.2 min.
Turning to `Cn1c(=O)c2[nH]cnc2n(C)c1=O`, the LC retention time is 14.3 min.
As for `CNC(C)Cc1ccc2c(c1)OCO2` (stereo not given), the LC retention time is 17.4 min.
Under `Nc1nc(N)c2nc(-c3ccccc3)c(N)nc2n1` stands 14.7 min; under `CNCC(c1ccc(OC)cc1)C1(O)CCCCC1` (stereo not given), 14.8 min.
As to `CCC1(c2ccccc2)C(=O)NCNC1=O`, the LC retention time was 17 min.
`CNC(=C[N+](=O)[O-])NCCSCc1ccc(CN(C)C)o1`: the LC retention time is 11.8 min.
For `CNCCC(Oc1cccc2ccccc12)c1cccs1` (stereo not given), the LC retention time is 18.7 min.
Consider `CC(C)NCC(O)COc1cccc2ccccc12` (stereo not given), for which the LC retention time was 17.1 min.
Under `CCN1CCCC1CNC(=O)c1cc(S(N)(=O)=O)ccc1OC` (stereo not given) stands 11.6 min.
For `Cn1c(=O)c2c(ncn2C)n(C)c1=O`, the LC retention time was 15.2 min.
The value for `Cc1nc(NS(=O)(=O)c2ccc(N)cc2)oc1C` was 16 min; that for `CN1CCN2c3ncc(O)cc3Cc3ccccc3C2C1` (stereo not given) was 14.4 min.
The value for `CCC1OC(=O)C(C)C(OC2CC(C)(OC)C(O)C(C)O2)C(C)C(OC2OC(C)CC(N(C)C)C2O)C(C)(O)CC(C)C(=O)C(C)C(O)C1(C)O` (stereo not given) was 18.5 min; that for `NC(=O)N1c2ccccc2CC(=O)c2ccccc21` was 18.8 min; that for `NCC1(CC(=O)O)CCCCC1` was 13.3 min.
The value for `COc1cccc(C2(O)CCCCC2CN(C)C)c1` (stereo not given) was 14.6 min.
With `COCC(NC(C)=O)C(=O)NCc1ccccc1` (stereo not given), the LC retention time is 16.8 min.
Under `COC(=O)C1C(OC(=O)c2ccccc2)CC2CCC1N2C` (stereo not given) stands 14.9 min; under `CN(C)CCCN1c2ccccc2CCc2ccccc21`, 18.6 min.
The value for `C=CC1(C)CC(OC(=O)CSCCN(CC)CC)C2(C)C(C)CCC3(CCC(=O)C32)C(C)C1O` (stereo not given) was 18.1 min; that for `Cc1cc(C)nc(NS(=O)(=O)c2ccc(N)cc2)n1` was 15 min.
Under `Nc1ccc(S(=O)(=O)Nc2nccs2)cc1` stands 13.5 min; under `CCC(C)(C)C(=O)OC1CC(C)C=C2C=CC(C)C(CCC3CC(O)CC(=O)O3)C21` (stereo not given), 27 min.
With `COc1cc(NS(=O)(=O)c2ccc(N)cc2)nc(OC)n1`, the LC retention time is 17.5 min.
In the case of `CC(=O)Nc1ccc(O)cc1`, the LC retention time is 13.1 min.
On to `CN1CCC23c4c5ccc(O)c4OC2C(O)C=CC3C1C5` (stereo not given), for which the LC retention time was 10.1 min.
The value for `CCNC(C)Cc1ccc2c(c1)OCO2` (stereo not given) was 14.1 min; that for `COCCc1ccc(OCC(O)CNC(C)C)cc1` (stereo not given) was 15 min.
The value for `CN(C)C1C(=O)C(C(N)=O)=C(O)C2(O)C(=O)C3=C(O)c4c(O)cccc4C(C)(O)C3C(O)C12` (stereo not given) was 15.1 min; that for `CC(=O)Oc1ccc2c3c1OC1C(OC(C)=O)C=CC4C(C2)N(C)CCC341` (stereo not given) was 14.7 min.
Turning to `CC(N)Cc1ccc2c(c1)OCO2` (stereo not given), the LC retention time is 13.6 min.
Under `CC1c2cccc(O)c2C(O)=C2C(=O)C3(O)C(O)=C(C(N)=O)C(=O)C(N(C)C)C3C(O)C21` (stereo not given) stands 17.7 min; under `CC(=O)OC1C=CC2C3Cc4ccc(O)c5c4C2(CCN3C)C1O5` (stereo not given), 13 min; under `CN(C)C1C(=O)C(C(N)=O)=C(O)C2(O)C(=O)C3=C(O)c4c(O)cccc4C(C)(O)C3CC12` (stereo not given), 14.8 min.
The value for `O=C1CN=C(c2ccccc2)c2cc([N+](=O)[O-])ccc2N1` was 20.4 min; that for `CCn1cc(C(=O)O)c(=O)c2cc3c(cc21)OCO3` was 20.1 min.
Under `CCC(C(N)=O)N1CCCC1=O` (stereo not given) stands 13.6 min.
For the compound `CCC(=O)C(CC(C)N(C)C)(c1ccccc1)c1ccccc1` (stereo not given), the LC retention time is 18.5 min.
With `CN(C)CCC=C1c2ccccc2COc2ccccc21`, the LC retention time was 17.6 min.
The value for `CCC1OC(=O)C(C)C(OC2CC(C)(OC)C(O)C(C)O2)C(C)C(OC2OC(C)CC(N(C)C)C2O)C(C)(OC)CC(C)C(=O)C(C)C(O)C1(C)O` (stereo not given) was 19.6 min; that for `CC(C)CC(CN)CC(=O)O` (stereo not given) was 13.2 min.
With `CN1CCN2c3ncccc3Cc3ccccc3C2C1` (stereo not given), the LC retention time was 15.5 min.
Under `CC(=O)C1CCC2C3CCC4=CC(=O)CCC4(C)C3CCC12C` (stereo not given) stands 24.7 min.
The value for `CCN(C)C(=O)Oc1cccc(C(C)N(C)C)c1` (stereo not given) was 14.8 min; that for `CCCCC(=O)N(Cc1ccc(-c2ccccc2-c2nn[nH]n2)cc1)C(C(=O)O)C(C)C` (stereo not given) was 23.2 min.
The value for `c1ccc2c(c1)Cc1cccnc1N1CCNCC21` (stereo not given) was 15.7 min.
Regarding `Cc1noc(NS(=O)(=O)c2ccc(N)cc2)c1C`, the LC retention time was 14.5 min.
The value for `Nc1ccc(S(=O)(=O)Nc2ncccn2)cc1` was 13.2 min; that for `CNC(C)Cc1ccccc1` (stereo not given) was 13.5 min; that for `COc1ccc(NS(=O)(=O)c2ccc(N)cc2)nn1` was 16 min.
Under `CN(C)CCC=C1c2ccccc2CCc2ccccc21` stands 18.9 min.
Under `COc1cc(NS(=O)(=O)c2ccc(N)cc2)ncn1` stands 15.2 min; under `Cn1c([N+](=O)[O-])cnc1COC(N)=O`, 13.1 min; under `Cc1cc(NS(=O)(=O)c2ccc(N)cc2)no1`, 15.7 min.
`COc1cc(Cc2cnc(N)nc2N)cc(OC)c1OC`: the LC retention time was 13.5 min.
Under `CNCCC=C1c2ccccc2CCc2ccccc21` stands 19.1 min; under `CC1(C)SC2C(NC(=O)C(N)c3ccc(O)cc3)C(=O)N2C1C(=O)O` (stereo not given), 28.1 min; under `CCN1CCCC1CNC(=O)c1cc(S(=O)(=O)CC)c(N)cc1OC` (stereo not given), 13.4 min.
Turning to `COc1ncnc(NS(=O)(=O)c2ccc(N)cc2)c1OC`, the LC retention time was 16 min.
As for `Nc1ccc(S(=O)(=O)Nc2ccccn2)cc1`, the LC retention time was 13.8 min.
The value for `Cc1ccnc(NS(=O)(=O)c2ccc(N)cc2)n1` was 14.2 min.
On to `CCC1OC(=O)C(C)C(OC2CC(C)(OC)C(O)C(C)O2)C(C)C(OC2OC(C)CC(N(C)C)C2O)C(C)(O)CC(C)CN(C)C(C)C(O)C1(C)O` (stereo not given), for which the LC retention time is 17.4 min.
The value for `COc1ccc2c3c1OC1C(=O)CCC4(O)C(C2)N(C)CCC314` (stereo not given) was 12.6 min.
Take `NC(N)=NS(=O)(=O)c1ccc(N)cc1`: the LC retention time is 7.11 min.
Regarding `COc1ccc2c3c1OC1C(O)C=CC4C(C2)N(C)CCC341` (stereo not given), the LC retention time is 12.2 min.
Under `CN=C(NC#N)NCCSCc1nc[nH]c1C` stands 11.9 min; under `Cc1nnc(NS(=O)(=O)c2ccc(N)cc2)s1`, 14.8 min.
The value for `CCCC1CC(C(=O)NC(C(C)O)C2OC(SC)C(O)C(O)C2O)N(C)C1` (stereo not given) was 13.3 min; that for `NC(=O)N1c2ccccc2C=Cc2ccccc21` was 20.1 min.
Take `OCCOCCN1CCN(C2=Nc3ccccc3Sc3ccccc32)CC1`: the LC retention time was 17.6 min.
On to `CCC1OC(=O)CC(O)C(C)C(OC2OC(C)C(OC3CC(C)(O)C(O)C(C)O3)C(N(C)C)C2O)C(CC=O)CC(C)C(=O)C=CC(C)=CC1COC1OC(C)C(O)C(OC)C1OC` (stereo not given), for which the LC retention time is 18.3 min.
Consider `Cc1ccc(-c2nc3ccc(C)cn3c2CC(=O)N(C)C)cc1`, for which the LC retention time was 15.5 min.
The value for `CC(C)NCC(O)COc1ccc(CC(N)=O)cc1` (stereo not given) was 11.7 min; that for `Nc1ccc(S(=O)(=O)Nc2cnc3ccccc3n2)cc1` was 17.8 min.
Under `COc1ccc(C(CN(C)C)C2(O)CCCCC2)cc1` (stereo not given) stands 16.6 min; under `Cc1ccsc1C(=CCCN1CCCC(C(=O)O)C1)c1sccc1C` (stereo not given), 19.6 min; under `CC=C1N(C)C(C)CC1(c1ccccc1)c1ccccc1` (stereo not given), 16.9 min.
The value for `CC1=C(C(=O)O)N2C(=O)C(NC(=O)C(N)c3ccccc3)C2SC1` (stereo not given) was 14.3 min.
Turning to `CCN(CC)C(=O)C1C=C2c3cccc4[nH]cc(c34)CC2N(C)C1` (stereo not given), the LC retention time is 15.8 min.
